Results on 31 compounds are retold here after patent publication US10913727B2, “Modulators of the integrated stress pathway” (Calico Life Sciences LLC, priority 2016, dated 2021).

The structures appear in SMILES notation.

This assay relates to HEK293T cells carrying the ATF4 luciferase reporter. The assay can be described thus: ATF4-Luc assay, in vitro model of Vanishing Cell White Matter Disease (VWMD). Format: cell-based. The following applies: Homo sapiens, HEK-293T, 1 μg/mL tunicamycin, 7 hours, One Glo luminescence. In a few lines:
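Stable HEK293T line with human ATF4 5′-UTR–firefly luciferase reporter treated with 1 μg/mL tunicamycin plus 200 nM compound for 7 h. Luminescence read; EC50 derived.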
As a reminder, the EC50 is the concentration needed to bring the measured effect to its halfway point. Turning to `O=C(COc1ccc(Cl)c(F)c1)NC12CCC(NC(=O)c3cnn4ccccc34)(CC1)CC2O` (stereo not shown) [Compound 596, N-{4-[2-(4-chloro-3-fluorophenoxy)acetamido]-3-hydroxybicyclo[2.2.2]octan-1-yl}pyrazolo[1,5-a]pyridine-3-carboxamide], the EC50 lay in the range of 0.25 to 1 µM. Turning to `Cc1ccc2nc(C(=O)NC34CCC(NC(=O)COc5ccc(Cl)c(F)c5)(CC3)C(O)C4)cn2c1` (stereo not shown) [Compound 597, N-{4-[2-(4-chloro-3-fluorophenoxy)acetamido]-3-hydroxybicyclo[2.2.2]octan-1-yl}-6-methylimidazo[1,2-a]pyridine-2-carboxamide], the EC50 was in the range of 0.25 to 1 µM. Consider `Cc1ccn2cc(C(=O)NC34CCC(NC(=O)COc5ccc(Cl)c(F)c5)(CC3)C(O)C4)nc2c1` (stereo not shown) [Compound 598, N-{4-[2-(4-chloro-3-fluorophenoxy)acetamido]-3-hydroxybicyclo[2.2.2]octan-1-yl}-7-methylimidazo[1,2-a]pyridine-2-carboxamide], for which the EC50 is 0.05 to 0.25 µM. For the compound `Cc1cccn2cc(C(=O)NC34CCC(NC(=O)COc5ccc(Cl)c(F)c5)(CC3)C(O)C4)nc12` (stereo not shown) [Compound 599, N-{4-[2-(4-chloro-3-fluorophenoxy)acetamido]-3-hydroxybicyclo[2.2.2]octan-1-yl}-8-methylimidazo[1,2-a]pyridine-2-carboxamide], the EC50 fell in the range of 0.25 to 1 µM. As for `O=C(COc1ccc(Cl)c(F)c1)NC12CCC(NC(=O)c3cn4cc(F)ccc4n3)(CC1)CC2O` (stereo not shown) [Compound 600, N-{4-[2-(4-chloro-3-fluorophenoxy)acetamido]-3-hydroxybicyclo[2.2.2]octan-1-yl}-6-fluoroimidazo[1,2-a]pyridine-2-carboxamide], the EC50 lay in the range of 0.25 to 1 µM.

On to `O=C(COc1ccc(Cl)c(F)c1)NC12CCC(NC(=O)c3cn4ccccc4n3)(CC1)CC2O` (stereo not shown) [Compound 601, N-{4-[2-(4-chloro-3-fluorophenoxy)acetamido]-3-hydroxybicyclo[2.2.2]octan-1-yl}imidazo[1,2-a]pyridine-2-carboxamide], for which the EC50 lay in the range of 0.25 to 1 µM. Consider `Cn1nccc1C(=O)NC12CCC(NC(=O)COc3ccc(Cl)c(F)c3)(CC1)C(O)C2` (stereo not shown) [Compound 602, N-{4-[2-(4-chloro-3-fluorophenoxy)acetamido]-3-hydroxybicyclo[2.2.2]octan-1-yl}-1-methyl-1H-pyrazole-5-carboxamide], for which the EC50 fell in the range of 0.25 to 1 µM.

Regarding `CCn1nc(C)cc1C(=O)NC12CCC(NC(=O)COc3ccc(Cl)c(F)c3)(CC1)C(O)C2` (stereo not shown) [Compound 603, N-{4-[2-(4-chloro-3-fluorophenoxy)acetamido]-3-hydroxybicyclo[2.2.2]octan-1-yl}-1-ethyl-3-methyl-1H-pyrazole-5-carboxamide], the EC50 is 0.25 to 1 µM.

Regarding `Cc1oncc1C(=O)NC12CCC(NC(=O)COc3ccc(Cl)c(F)c3)(CC1)C(O)C2` (stereo not shown) [Compound 604, N-{4-[2-(4-chloro-3-fluorophenoxy)acetamido]-3-hydroxybicyclo[2.2.2]octan-1-yl}-5-methyl-1,2-oxazole-4-carboxamide], the EC50 is over 2 µM. Take `Cc1nocc1C(=O)NC12CCC(NC(=O)COc3ccc(Cl)c(F)c3)(CC1)C(O)C2` (stereo not shown) [Compound 605, N-{4-[2-(4-chloro-3-fluorophenoxy)acetamido]-3-hydroxybicyclo[2.2.2]octan-1-yl}-3-methyl-1,2-oxazole-4-carboxamide]: the EC50 was over 2 µM.

Regarding `CCc1cc(C(=O)NC23CCC(NC(=O)COc4ccc(Cl)c(F)c4)(CC2)C(O)C3)no1` (stereo not shown) [Compound 606, N-{4-[2-(4-chloro-3-fluorophenoxy)acetamido]-3-hydroxybicyclo[2.2.2]octan-1-yl}-5-ethyl-1,2-oxazole-3-carboxamide], the EC50 was 0.05 to 0.25 µM. As for `CC(C)c1nc(C(=O)NC23CCC(NC(=O)COc4ccc(Cl)c(F)c4)(CC2)C(O)C3)co1` (stereo not shown) [Compound 607, N-{4-[2-(4-chloro-3-fluorophenoxy)acetamido]-3-hydroxybicyclo[2.2.2]octan-1-yl}-2-(propan-2-yl)-1,3-oxazole-4-carboxamide], the EC50 was in the range of 0.05 to 0.25 µM.

For `O=C(COc1ccc(Cl)c(F)c1)NC12CC(NC(=O)c3cnc4[nH]ncc4c3)(C1)C2` [Compound 608, N-{3-[2-(4-chloro-3-fluorophenoxy)acetamido]bicyclo[1.1.1]pentan-1-yl}-1H-pyrazolo[3,4-b]pyridine-5-carboxamide], the EC50 lay in the range of 0.05 to 0.25 µM. In the case of `O=C(COc1ccc(Cl)c(F)c1)NC12CC(Nc3ccn4nccc4n3)(C1)C2` [Compound 609, 2-(4-chloro-3-fluorophenoxy)-N-{3-[(pyrazolo[1,5-a]pyrimidin-5-yl)amino]bicyclo[1.1.1]pentan-1-yl}acetamide], the half-maximal effective concentration (EC50) fell in the range of 1 to 2 µM. Next, `Cc1cnn2ccc(NC34CC(NC(=O)COc5ccc(Cl)c(F)c5)(C3)C4)nc12` [Compound 610, 2-(4-chloro-3-fluorophenoxy)-N-{3-[(3-methylpyrazolo[1,5-a]pyrimidin-5-yl)amino]bicyclo[1.1.1]pentan-1-yl}acetamide]: 1 to 2 µM; `O=C(COc1ccc(Cl)c(F)c1)NC12CCC(NC(=O)c3cccs3)(CC1)CC2O` (stereo not shown) [Compound 611, N-{4-[2-(4-chloro-3-fluorophenoxy)acetamido]-3-hydroxybicyclo[2.2.2]octan-1-yl}thiophene-2-carboxamide]: under 0.05 µM; `Cc1cc(C(=O)NC23CC(NC(=O)COc4ccc(Cl)c(F)c4)(C2)C3)oc1C` [Compound 612, N-{3-[2-(4-chloro-3-fluorophenoxy)acetamido]bicyclo[1.1.1]pentan-1-yl}-4,5-dimethylfuran-2-carboxamide]: 0.05 to 0.25 µM. To `Cc1coc(C(=O)NC23CC(NC(=O)COc4ccc(Cl)c(F)c4)(C2)C3)c1` [Compound 613, N-{3-[2-(4-chloro-3-fluorophenoxy)acetamido]bicyclo[1.1.1]pentan-1-yl}-4-methylfuran-2-carboxamide] belongs 0.05 to 0.25 µM; to `O=C(COc1ccc(Cl)c(Cl)c1)NC12CC(NC(=O)c3cnc(C4CC4)o3)(C1)C2` [Compound 614, 2-cyclopropyl-N-{3-[2-(3,4-dichlorophenoxy)acetamido]bicyclo[1.1.1]pentan-1-yl}-1,3-oxazole-5-carboxamide], 0.05 to 0.25 µM. Take `NCc1ccnc(C(=O)NC23CC(NC(=O)COc4ccc(Cl)c(Cl)c4)(C2)C3)c1` [Compound 615, 4-(aminomethyl)-N-{3-[2-(3,4-dichlorophenoxy)acetamido]bicyclo[1.1.1]pentan-1-yl}pyridine-2-carboxamide]: the EC50 is 0.05 to 0.25 µM. As for `Cc1cnc(C(=O)NC23CCC(NC(=O)COc4ccc(Cl)c(F)c4)(C2)C3)s1` [Compound 616, N-{4-[2-(4-chloro-3-fluorophenoxy)acetamido]bicyclo[2.1.1]hexan-1-yl}-5-methyl-1,3-thiazole-2-carboxamide], the EC50 was over 2 µM.

For the compound `Cc1cc(C(=O)NC23CC(NC(=O)COc4ccc(Cl)c(Cl)c4)(C2)C3)sn1` [Compound 617, N-{3-[2-(3,4-dichlorophenoxy)acetamido]bicyclo[1.1.1]pentan-1-yl}-3-methyl-1,2-thiazole-5-carboxamide], the EC50 was under 0.05 µM. For the compound `CCc1cc(C(=O)NC23CCC(NC(=O)COc4ccc(Cl)c(F)c4)(CC2)[C@@H](O)C3)on1` [Compound 618, N-{(3S)-4-[2-(4-chloro-3-fluorophenoxy)acetamido]-3-hydroxybicyclo[2.2.2]octan-1-yl}-3-ethyl-1,2-oxazole-5-carboxamide], the EC50 was under 0.05 µM. `COCc1nc(C(=O)NC23CCC(NC(=O)COc4ccc(Cl)c(F)c4)(CC2)[C@@H](O)C3)cs1` [Compound 619, N-{(3S)-4-[2-(4-chloro-3-fluorophenoxy)acetamido]-3-hydroxybicyclo[2.2.2]octan-1-yl}-2-(methoxymethyl)-1,3-thiazole-4-carboxamide]: the EC50 is under 0.05 µM. Next, `Cn1ncc2cc(C(=O)NC34CC(NC(=O)COc5ccc(Cl)c(F)c5)(C3)C4)cnc21` [Compound 620, N-{3-[2-(4-chloro-3-fluorophenoxy)acetamido]bicyclo[1.1.1]pentan-1-yl}-1-methyl-1H-pyrazolo[3,4-b]pyridine-5-carboxamide]: 1 to 2 µM. On to `Cc1ccc(C(=O)NC23CCC(NC(=O)COc4ccc(Cl)c(F)c4)(CC2)C(O)C3)s1` (stereo not shown) [Compound 621, N-{4-[2-(4-chloro-3-fluorophenoxy)acetamido]-3-hydroxybicyclo[2.2.2]octan-1-yl}-5-methylthiophene-2-carboxamide], for which the EC50 fell in the range of 0.05 to 0.25 µM.

For the compound `Cc1csc(C(=O)NC23CCC(NC(=O)COc4ccc(Cl)c(F)c4)(CC2)C(O)C3)c1` (stereo not shown) [Compound 622, N-{4-[2-(4-chloro-3-fluorophenoxy)acetamido]-3-hydroxybicyclo[2.2.2]octan-1-yl}-4-methylthiophene-2-carboxamide], the EC50 is under 0.05 µM. `O=C(COc1ccc(Cl)c(F)c1)NC12CCC(NC(=O)c3ccc(C(F)F)s3)(CC1)CC2O` (stereo not shown) [Compound 623, N-{4-[2-(4-chloro-3-fluorophenoxy)acetamido]-3-hydroxybicyclo[2.2.2]octan-1-yl}-5-(difluoromethyl)thiophene-2-carboxamide]: the EC50 lay in the range of 0.05 to 0.25 µM. Consider `Cc1ccc(C(=O)NC23CCC(NC(=O)COc4ccc(Cl)c(F)c4)(CC2)C(O)C3)o1` (stereo not shown) [Compound 624, N-{4-[2-(4-chloro-3-fluorophenoxy)acetamido]-3-hydroxybicyclo[2.2.2]octan-1-yl}-5-methylfuran-2-carboxamide], for which the EC50 was 0.05 to 0.25 µM. `O=C(COc1ccc(Cl)c(F)c1)NC12CCC(NC(=O)c3ccc(C(F)(F)F)o3)(CC1)CC2O` (stereo not shown) [Compound 625, N-{4-[2-(4-chloro-3-fluorophenoxy)acetamido]-3-hydroxybicyclo[2.2.2]octan-1-yl}-5-(trifluoromethyl)furan-2-carboxamide]: the EC50 fell in the range of 0.25 to 1 µM.

For `Cn1cc(C(=O)NC23CCC(NC(=O)COc4ccc(Cl)c(F)c4)(CC2)C(O)C3)cn1` (stereo not shown) [Compound 626, N-{4-[2-(4-chloro-3-fluorophenoxy)acetamido]-3-hydroxybicyclo[2.2.2]octan-1-yl}-1-methyl-1H-pyrazole-4-carboxamide], the EC50 was in the range of 0.05 to 0.25 µM.
